Experiment [1] deals with Bone morphogenetic protein receptor type-1A (Homo sapiens, UniProt P36894).
Experiment [2] deals with Tyrosine-protein kinase CSK (Homo sapiens, UniProt P41240).
The next experiment deals with Ephrin type-A receptor 5 (Homo sapiens, UniProt P54756).
Another experiment deals with T1, ADP/ATP translocase 3 (Homo sapiens, UniProt P12236).
T1 sequence (P12236 whole entry): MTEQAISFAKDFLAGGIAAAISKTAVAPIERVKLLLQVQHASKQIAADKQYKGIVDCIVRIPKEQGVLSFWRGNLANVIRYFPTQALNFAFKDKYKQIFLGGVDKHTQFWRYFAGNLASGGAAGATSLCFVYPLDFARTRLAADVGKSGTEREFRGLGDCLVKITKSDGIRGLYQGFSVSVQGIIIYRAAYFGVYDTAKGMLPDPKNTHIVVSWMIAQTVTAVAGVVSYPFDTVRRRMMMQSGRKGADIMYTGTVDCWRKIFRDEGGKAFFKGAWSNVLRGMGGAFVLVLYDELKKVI

The target of experiment [3] is T2, Serine/threonine-protein kinase ULK1 (Homo sapiens, UniProt O75385).
T2 sequence (O75385 whole entry): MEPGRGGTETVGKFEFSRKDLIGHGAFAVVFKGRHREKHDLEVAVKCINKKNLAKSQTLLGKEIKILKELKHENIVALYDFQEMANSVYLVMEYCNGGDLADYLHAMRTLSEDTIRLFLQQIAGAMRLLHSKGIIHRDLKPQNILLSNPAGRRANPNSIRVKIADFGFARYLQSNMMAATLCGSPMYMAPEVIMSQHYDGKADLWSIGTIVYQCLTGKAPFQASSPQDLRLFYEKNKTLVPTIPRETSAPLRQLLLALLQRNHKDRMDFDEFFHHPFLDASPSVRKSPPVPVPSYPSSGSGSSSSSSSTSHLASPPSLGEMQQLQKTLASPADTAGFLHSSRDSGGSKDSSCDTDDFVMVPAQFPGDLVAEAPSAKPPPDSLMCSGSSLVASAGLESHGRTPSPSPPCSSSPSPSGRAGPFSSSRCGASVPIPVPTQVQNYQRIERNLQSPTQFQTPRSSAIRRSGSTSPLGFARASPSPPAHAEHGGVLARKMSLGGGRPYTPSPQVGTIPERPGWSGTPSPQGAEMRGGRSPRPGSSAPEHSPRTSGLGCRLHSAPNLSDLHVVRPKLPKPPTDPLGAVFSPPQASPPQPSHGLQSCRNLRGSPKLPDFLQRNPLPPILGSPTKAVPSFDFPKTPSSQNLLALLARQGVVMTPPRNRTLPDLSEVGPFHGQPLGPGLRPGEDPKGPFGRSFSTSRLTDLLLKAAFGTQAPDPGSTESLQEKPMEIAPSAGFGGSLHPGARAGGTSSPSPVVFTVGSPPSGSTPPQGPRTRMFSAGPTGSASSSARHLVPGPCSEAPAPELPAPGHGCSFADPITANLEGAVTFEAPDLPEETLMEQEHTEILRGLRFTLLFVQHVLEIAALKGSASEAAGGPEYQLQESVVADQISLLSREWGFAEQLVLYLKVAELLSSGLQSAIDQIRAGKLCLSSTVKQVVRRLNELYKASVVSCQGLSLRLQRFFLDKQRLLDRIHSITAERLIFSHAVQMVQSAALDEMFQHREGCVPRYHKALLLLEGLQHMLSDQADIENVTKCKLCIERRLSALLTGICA

Experiment [4] addresses Mitogen-activated protein kinase kinase kinase 20 (Homo sapiens, UniProt Q9NYL2).
The target in experiment [5] is T3, General transcription and DNA repair factor IIH helicase subunit XPD (Homo sapiens, UniProt P18074).
T3 sequence (P18074 whole entry): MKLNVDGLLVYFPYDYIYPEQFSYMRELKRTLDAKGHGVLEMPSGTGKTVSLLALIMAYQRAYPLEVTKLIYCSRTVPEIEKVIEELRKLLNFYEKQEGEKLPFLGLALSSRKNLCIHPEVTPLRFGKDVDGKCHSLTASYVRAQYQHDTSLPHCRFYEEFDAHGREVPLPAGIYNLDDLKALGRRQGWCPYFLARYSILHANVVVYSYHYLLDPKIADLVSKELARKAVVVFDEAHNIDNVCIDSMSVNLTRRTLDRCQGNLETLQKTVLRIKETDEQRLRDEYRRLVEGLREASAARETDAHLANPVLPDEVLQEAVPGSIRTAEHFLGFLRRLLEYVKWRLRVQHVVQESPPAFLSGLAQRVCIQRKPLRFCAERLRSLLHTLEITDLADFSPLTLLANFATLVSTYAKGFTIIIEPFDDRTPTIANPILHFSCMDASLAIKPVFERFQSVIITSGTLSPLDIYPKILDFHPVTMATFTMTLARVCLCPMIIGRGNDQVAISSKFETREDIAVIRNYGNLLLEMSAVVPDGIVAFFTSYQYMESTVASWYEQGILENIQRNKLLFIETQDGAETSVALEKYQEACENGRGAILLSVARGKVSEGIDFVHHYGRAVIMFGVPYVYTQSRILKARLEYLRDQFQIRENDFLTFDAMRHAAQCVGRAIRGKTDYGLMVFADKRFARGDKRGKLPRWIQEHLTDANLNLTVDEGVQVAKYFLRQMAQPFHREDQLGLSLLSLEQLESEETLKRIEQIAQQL
Particulars: read-out: Kd apparent; k-562, colo 205, sk-n-be(2) and mv-4-11.

In experiment [6] the target is Platelet-derived growth factor receptor beta (Homo sapiens, UniProt P09619).

Experimental findings from ChEMBL document CHEMBL3991601, “The target landscape of clinical kinase drugs” (Science, 2017) are described below.

Calls of active or inactive are those of the source. Cut-off read from the data, not from the text of the source, for most assays here: actives have a measured Kd and inactives only a lower limit.
Note: in the data inactive means no Kd found up to 30 µM.

Chain of Bone morphogenetic protein receptor type-1A (P36894 whole entry): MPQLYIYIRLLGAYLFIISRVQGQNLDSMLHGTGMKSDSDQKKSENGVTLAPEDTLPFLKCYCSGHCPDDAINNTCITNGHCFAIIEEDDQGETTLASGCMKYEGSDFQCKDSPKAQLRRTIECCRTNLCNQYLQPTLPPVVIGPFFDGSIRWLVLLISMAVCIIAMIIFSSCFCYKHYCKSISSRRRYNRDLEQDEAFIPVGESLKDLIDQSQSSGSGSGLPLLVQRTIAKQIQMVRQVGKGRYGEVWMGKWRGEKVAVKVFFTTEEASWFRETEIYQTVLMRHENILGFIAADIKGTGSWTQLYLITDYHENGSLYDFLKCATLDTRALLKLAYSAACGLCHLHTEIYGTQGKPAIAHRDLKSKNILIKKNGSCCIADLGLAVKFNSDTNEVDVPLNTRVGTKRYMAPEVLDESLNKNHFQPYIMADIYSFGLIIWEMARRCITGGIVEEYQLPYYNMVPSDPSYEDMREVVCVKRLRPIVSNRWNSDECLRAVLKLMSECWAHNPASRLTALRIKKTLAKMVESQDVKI
Chain of Platelet-derived growth factor receptor beta (P09619 whole entry): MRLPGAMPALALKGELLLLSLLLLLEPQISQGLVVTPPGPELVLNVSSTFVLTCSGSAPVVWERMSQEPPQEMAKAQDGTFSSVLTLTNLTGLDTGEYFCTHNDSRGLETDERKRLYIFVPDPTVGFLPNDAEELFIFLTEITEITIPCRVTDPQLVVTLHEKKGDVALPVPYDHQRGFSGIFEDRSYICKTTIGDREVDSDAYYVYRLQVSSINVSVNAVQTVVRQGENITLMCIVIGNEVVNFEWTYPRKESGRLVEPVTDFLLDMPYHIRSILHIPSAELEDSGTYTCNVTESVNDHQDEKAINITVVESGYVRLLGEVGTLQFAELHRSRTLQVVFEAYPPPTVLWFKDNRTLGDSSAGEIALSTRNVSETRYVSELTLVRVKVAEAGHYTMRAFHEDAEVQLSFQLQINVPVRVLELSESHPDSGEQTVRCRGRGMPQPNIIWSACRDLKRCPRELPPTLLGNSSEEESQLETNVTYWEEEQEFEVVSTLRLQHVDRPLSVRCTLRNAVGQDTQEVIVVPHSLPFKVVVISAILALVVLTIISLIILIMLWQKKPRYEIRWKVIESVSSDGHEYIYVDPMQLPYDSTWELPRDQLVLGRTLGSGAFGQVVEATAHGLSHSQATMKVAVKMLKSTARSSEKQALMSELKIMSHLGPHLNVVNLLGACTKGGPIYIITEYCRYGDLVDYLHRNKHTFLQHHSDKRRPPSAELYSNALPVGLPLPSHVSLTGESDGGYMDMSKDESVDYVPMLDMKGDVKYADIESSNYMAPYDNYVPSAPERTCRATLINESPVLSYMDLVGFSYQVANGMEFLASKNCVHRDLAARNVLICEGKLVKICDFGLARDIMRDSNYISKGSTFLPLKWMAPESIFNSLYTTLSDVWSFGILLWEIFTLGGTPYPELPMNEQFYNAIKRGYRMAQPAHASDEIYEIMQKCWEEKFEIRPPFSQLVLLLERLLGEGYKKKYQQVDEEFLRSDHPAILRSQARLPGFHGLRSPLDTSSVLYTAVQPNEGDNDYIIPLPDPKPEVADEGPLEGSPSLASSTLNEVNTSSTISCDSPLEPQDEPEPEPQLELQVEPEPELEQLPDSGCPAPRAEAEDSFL
Chain of Tyrosine-protein kinase CSK (P41240 whole entry): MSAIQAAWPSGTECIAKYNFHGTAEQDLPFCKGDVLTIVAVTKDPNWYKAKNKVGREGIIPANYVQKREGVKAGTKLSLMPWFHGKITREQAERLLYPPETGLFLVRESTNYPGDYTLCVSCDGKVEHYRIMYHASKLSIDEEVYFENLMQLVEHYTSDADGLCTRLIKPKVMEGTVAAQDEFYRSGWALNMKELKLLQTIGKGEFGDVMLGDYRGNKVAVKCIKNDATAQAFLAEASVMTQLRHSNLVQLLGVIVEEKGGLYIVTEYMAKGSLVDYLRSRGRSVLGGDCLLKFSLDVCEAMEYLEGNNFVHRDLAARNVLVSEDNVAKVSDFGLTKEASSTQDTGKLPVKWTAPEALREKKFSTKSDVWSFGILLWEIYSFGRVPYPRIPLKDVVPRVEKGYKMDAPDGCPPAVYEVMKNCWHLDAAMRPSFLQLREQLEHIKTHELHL
Chain of Ephrin type-A receptor 5 (P54756 whole entry): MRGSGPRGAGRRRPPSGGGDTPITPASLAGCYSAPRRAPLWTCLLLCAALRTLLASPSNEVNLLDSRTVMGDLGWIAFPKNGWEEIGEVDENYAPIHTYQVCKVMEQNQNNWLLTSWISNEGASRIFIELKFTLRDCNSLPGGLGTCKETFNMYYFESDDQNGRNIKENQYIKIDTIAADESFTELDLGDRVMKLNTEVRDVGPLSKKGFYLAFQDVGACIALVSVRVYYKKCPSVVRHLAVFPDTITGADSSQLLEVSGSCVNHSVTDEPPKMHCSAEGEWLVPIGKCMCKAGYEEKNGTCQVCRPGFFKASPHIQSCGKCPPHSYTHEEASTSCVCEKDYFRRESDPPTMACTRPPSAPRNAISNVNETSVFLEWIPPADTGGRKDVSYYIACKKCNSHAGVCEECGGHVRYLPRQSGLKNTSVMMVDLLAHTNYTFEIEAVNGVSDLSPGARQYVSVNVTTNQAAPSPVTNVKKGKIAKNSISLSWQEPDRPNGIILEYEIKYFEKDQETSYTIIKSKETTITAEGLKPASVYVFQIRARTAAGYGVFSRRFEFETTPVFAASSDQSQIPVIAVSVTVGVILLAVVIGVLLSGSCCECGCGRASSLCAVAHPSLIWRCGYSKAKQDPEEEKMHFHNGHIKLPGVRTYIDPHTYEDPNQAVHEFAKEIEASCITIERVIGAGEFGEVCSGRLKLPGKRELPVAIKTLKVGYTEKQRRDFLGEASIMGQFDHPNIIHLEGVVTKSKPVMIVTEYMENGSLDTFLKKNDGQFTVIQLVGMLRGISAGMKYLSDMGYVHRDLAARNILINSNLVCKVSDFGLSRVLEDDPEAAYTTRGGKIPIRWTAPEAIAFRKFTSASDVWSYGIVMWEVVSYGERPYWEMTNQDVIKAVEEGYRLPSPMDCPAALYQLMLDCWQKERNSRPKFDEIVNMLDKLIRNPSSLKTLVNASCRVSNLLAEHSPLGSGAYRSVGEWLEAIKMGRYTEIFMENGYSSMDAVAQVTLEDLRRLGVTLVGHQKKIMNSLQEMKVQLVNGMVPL
Chain of Mitogen-activated protein kinase kinase kinase 20 (Q9NYL2 whole entry): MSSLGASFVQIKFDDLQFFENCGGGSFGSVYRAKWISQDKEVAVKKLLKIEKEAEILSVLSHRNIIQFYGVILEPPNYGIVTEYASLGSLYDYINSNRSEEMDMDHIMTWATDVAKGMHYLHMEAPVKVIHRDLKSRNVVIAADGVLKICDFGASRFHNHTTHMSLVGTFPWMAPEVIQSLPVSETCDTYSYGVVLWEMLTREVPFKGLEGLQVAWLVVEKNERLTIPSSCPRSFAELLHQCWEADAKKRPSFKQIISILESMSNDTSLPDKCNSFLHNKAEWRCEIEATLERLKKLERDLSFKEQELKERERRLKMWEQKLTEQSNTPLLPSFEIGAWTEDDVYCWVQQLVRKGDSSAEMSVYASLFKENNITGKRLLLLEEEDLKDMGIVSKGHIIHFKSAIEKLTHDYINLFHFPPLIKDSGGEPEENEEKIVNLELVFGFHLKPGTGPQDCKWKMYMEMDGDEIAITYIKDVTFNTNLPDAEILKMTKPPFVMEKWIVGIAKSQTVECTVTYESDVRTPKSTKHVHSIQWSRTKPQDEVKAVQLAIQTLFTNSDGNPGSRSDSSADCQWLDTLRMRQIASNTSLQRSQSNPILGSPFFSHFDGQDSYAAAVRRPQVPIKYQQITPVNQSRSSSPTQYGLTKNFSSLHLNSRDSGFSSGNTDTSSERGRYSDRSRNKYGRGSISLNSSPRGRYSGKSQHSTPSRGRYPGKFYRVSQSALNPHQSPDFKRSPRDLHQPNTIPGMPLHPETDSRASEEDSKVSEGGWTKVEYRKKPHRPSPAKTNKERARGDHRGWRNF

As to `CCNC(=O)C#Cc1ccc2c(c1)NC(=O)/C2=C(\Nc1ccc(CN(C)C)cc1)c1ccccc1`, the Kd (in experiment [1]; in experiment [2]; on Ephrin type-A receptor 5; on ADP/ATP translocase 3; in experiment [3]; in experiment [4]) was > 30 µM (inactive) in each case. Moreover, the Kd in experiment [5] is > 30 µM (inactive).

Regarding `Cc1nc2cc(-c3nn(C(C)C)c4ncnc(N)c34)ccc2o1`, the Kd is 1.28 µM (active) in experiment [1]; > 30 µM (inactive) in experiment [2]; > 30 µM (inactive) at Ephrin type-A receptor 5; > 30 µM (inactive) at ADP/ATP translocase 3; > 30 µM (inactive) in experiment [3]; > 30 µM (inactive) in experiment [4]. In addition, in experiment [5], the Kd was > 30 µM (inactive).

Turning to `COc1cc(Nc2ncc3c(n2)-c2ccc(Cl)cc2C(c2c(F)cccc2OC)=NC3)ccc1C(=O)O` [ALISERTIB], the Kd (in experiment [1]; in experiment [2]; on Ephrin type-A receptor 5; in experiment [6]; on ADP/ATP translocase 3; in experiment [3]) was > 30 µM (inactive) throughout. The Kd in experiment [5] is > 30 µM (inactive).

Take `O=C(Nc1c[nH]nc1-c1nc2cc(CN3CCOCC3)ccc2[nH]1)NC1CC1` [AT-9283]: the Kd in experiment [1] was 0.388 µM (active); on Ephrin type-A receptor 5, > 30 µM (inactive); in experiment [6], > 30 µM (inactive); at ADP/ATP translocase 3, > 30 µM (inactive); in experiment [3] it was > 30 µM (inactive); in experiment [4] it was > 30 µM (inactive). The Kd in experiment [5] was > 30 µM (inactive).

Consider `CNC(=O)c1ccccc1Sc1ccc2c(/C=C/c3ccccn3)n[nH]c2c1` [AXITINIB], for which the Kd (on ADP/ATP translocase 3; in experiment [5]) was > 30 µM (inactive) each time.

For `COc1cc([C@@H]2c3cc4c(cc3[C@H](O)[C@H]3COC(=O)[C@@H]23)OCO4)cc(OC)c1OC` [AXL-1717], the Kd (in experiment [1]; in experiment [2]; on Ephrin type-A receptor 5; in experiment [6]; at ADP/ATP translocase 3; in experiment [4]) was > 30 µM (inactive) each time. The Kd in experiment [5] was > 30 µM (inactive).

For `NC(=O)Nc1cc(-c2cccc(F)c2)sc1C(=O)N[C@H]1CCCNC1` [AZD-7762], the Kd in experiment [1] was > 30 µM (inactive); on Ephrin type-A receptor 5, > 30 µM (inactive); in experiment [6] it was 0.552 µM (active); on ADP/ATP translocase 3 it was > 30 µM (inactive); in experiment [3] it was 0.115 µM (active); in experiment [4] it was > 30 µM (inactive). In addition, in experiment [5], the Kd was > 30 µM (inactive).

Consider `COc1cc2ncnc(Oc3cccc(NC(=O)Nc4cc(C(C)(C)C(F)(F)F)on4)c3)c2cc1OC` [CEP-32496], for which the Kd was > 30 µM (inactive) in experiment [1]; > 30 µM (inactive) in experiment [2]; 0.401 µM on Ephrin type-A receptor 5; > 30 µM (inactive) at ADP/ATP translocase 3; > 30 µM (inactive) in experiment [3]; 0.998 µM (active) in experiment [4]. Moreover, in experiment [5], the Kd was > 30 µM (inactive).

Turning to `CC(C)(C)c1nc(-c2cccc(NS(=O)(=O)c3c(F)cccc3F)c2F)c(-c2ccnc(N)n2)s1` [DABRAFENIB], the Kd was > 30 µM (inactive) in experiment [1]; 0.851 µM (active) in experiment [2]; > 30 µM (inactive) at ADP/ATP translocase 3; 0.188 µM (active) in experiment [3]; 0.184 µM (active) in experiment [4]; > 30 µM (inactive) in experiment [5].

As to `Cn1cc(C2=C(c3cn(C4CCN(Cc5ccccn5)CC4)c4ccccc34)C(=O)NC2=O)c2ccccc21` [ENZASTAURIN], the Kd (at ADP/ATP translocase 3; in experiment [5]) was > 30 µM (inactive) each time.

As for `C[C@@H](Oc1cc(-n2cnc3ccc(CN4CCN(C)CC4)cc32)sc1C(N)=O)c1ccccc1C(F)(F)F` [GSK-461364], the Kd (at ADP/ATP translocase 3; in experiment [5]) was > 30 µM (inactive) throughout.

For the compound `CNC(=O)c1nn(C)c2c1C(C)(C)Cc1cnc(Nc3ccc(N4CCN(C)CC4)cc3)nc1-2` [MILCICLIB], the Kd in experiment [1] was > 30 µM (inactive); in experiment [2], > 30 µM (inactive); at Ephrin type-A receptor 5, 0.147 µM (active); on ADP/ATP translocase 3 it was > 30 µM (inactive); in experiment [3], 1.75 µM (active); in experiment [4], > 30 µM (inactive).

Regarding `Cc1[nH]c(/C=C2\C(=O)Nc3ccccc32)c(C)c1CCC(=O)O` [ORANTINIB], the Kd is > 30 µM (inactive) in experiment [1]; > 30 µM (inactive) in experiment [2]; > 30 µM (inactive) at Ephrin type-A receptor 5; 0.744 µM (active) in experiment [6]; > 30 µM (inactive) on ADP/ATP translocase 3; > 30 µM (inactive) in experiment [3]. For the same compound, the Kd in experiment [5] is > 30 µM (inactive).

Consider `NC(=O)c1c(OCc2c(F)cc(Br)cc2F)nsc1NC(=O)NCCCCN1CCCC1` [OSI-632], for which the Kd (in experiment [2]; at Ephrin type-A receptor 5; on ADP/ATP translocase 3; in experiment [5]) was > 30 µM (inactive) each time.

With `CC(=O)NCC(=O)N1[C@@H]2CC[C@H]1c1ccc(Nc3ncc(C(F)(F)F)c(NC4CCC4)n3)cc12` [PF-03814735], the Kd in experiment [1] was > 30 µM (inactive); in experiment [2] it was > 30 µM (inactive); on Ephrin type-A receptor 5, > 30 µM (inactive); at ADP/ATP translocase 3, > 30 µM (inactive); in experiment [3] it was 0.028 µM (active); in experiment [5] it was > 30 µM (inactive).

Consider `O=C(NOCCO)c1cc(CN2OCCCC2=O)c(F)c(F)c1Nc1ccc(I)cc1F` [RO-4987655], for which the Kd (at ADP/ATP translocase 3; in experiment [5]) was > 30 µM (inactive) in each case.

For `N#CC[C@H](C1CCCC1)n1cc(-c2ncnc3[nH]ccc23)cn1` [RUXOLITINIB], the Kd (at ADP/ATP translocase 3; in experiment [5]) was > 30 µM (inactive) each time.

As for `CN1CCN(CCOc2cc(OC3CCOCC3)c3c(Nc4c(Cl)ccc5c4OCO5)ncnc3c2)CC1` [SARACATINIB], the Kd in experiment [1] was 0.06 µM (active); in experiment [2], 39.6 µM (active); at Ephrin type-A receptor 5, 2.38 µM (active); at ADP/ATP translocase 3, > 30 µM (inactive); in experiment [3] it was > 30 µM (inactive); in experiment [4], 2.98 µM (active). Further, the Kd in experiment [5] was > 30 µM (inactive).

Regarding `CC(C)c1cc(CNc2nc(Nc3cc(C4CC4)[nH]n3)cc(N3CCN(C)CC3)n2)on1` [XL-228], the Kd is > 30 µM (inactive) in experiment [2]; 0.081 µM (active) at Ephrin type-A receptor 5; > 30 µM (inactive) in experiment [6]; > 30 µM (inactive) at ADP/ATP translocase 3; > 30 µM (inactive) in experiment [3]; > 30 µM (inactive) in experiment [4]. The Kd in experiment [5] is 0.953 µM (active).
